Tests used:
[1] = cited from earlier work
[2] = system: RCE cells; assay: Counting of cumulative apoptotic deaths by videomicroscopy at time intervals; format: cell-based, rabbit; settings: Q10 10 μM in Lutrol F127; 193 nm excimer laser and 254 nm UV; 24-72 hours after radiation; FIG. 6
Source text: The videomicroscopy at time intervals is up to now one of the few techniques, if not the only one, enabling to have, apart from the cell death-type characterization, the exact quantification thereof too. In fact by continuously considering the cell population it is possible to calculate the number of cumulative deaths without losing any death event due to the disintegration of the cell body which typically occurs during apoptosis.
To perform the experiment RCE cells have been plated at the density of 5×10^5 cells/plate with 10-cm diameter and incubated overnight at 37° C., CO2 10%. Subsequently, the plates have been preincubated for 2 hours with Q10 10 μM dissolved in the Lutrol F127^MT solution or with Lutrol F127™ only. The culture medium has been then replaced by 8 ml of sterile PBS, additioned with Ca^++ and Mg^++ to avoid the cell detachment from the support, and the plates have undergone treatment with excimer laser and λ=254 UV radiation in a Stratalinker apparatus, model 1800 (Stratagene) with various doses. Subsequently the PBS has been replaced by fresh culture medium additioned with the above reagents. […]

[3] = system: RCE cells; assay: Counting of vital cells by trypan blue exclusion test after radiation; format: cell-based, rabbit; settings: Q10 10 μM in Lutrol F127; excimer laser and 254 nm UV (15,000 μJ/cm^2); FIGS. 5a, 5b
Protocol: However, the fact that the Q10 has a general protection effect against death by radiation is an important data in preventing […] collateral effects. In order to perform the trypan blue test, RCE cells have been plated at a density of 5×10^5 cells/plates with 10-cm diameter incubated overnight at 37° C., […]. Subsequently, the plates have been preincubated for 2 hours with Q10 10 μM dissolved in the Lutrol F127^MT solution or with Lutrol F127™ only. The culture medium has been then replaced by 8 ml of sterile PBS, additioned with Ca^++ and Mg^++ to avoid the cell detachment from the support, and the plates have undergone treatment with excimer laser and λ=254 UV radiation in a Stratalinker apparatus, model 1800 (Stratagene). Subsequently the PBS has been replaced by fresh culture medium additioned with the above reagents. The plates have been incubated for the time shown in FIG. 6a and in FIG. 6b and subsequently detached by trypsin according to standard procedures and resuspended in PBS. To the cell suspension a trypan blue solution in PBS by 1% concentration has been added immediately before the counting performed by means of cell-counting chamber. The number of live cells is shown in the FIGS. 4, 5a and 5b in the non-treated sample percentage.

[4] = system: RCE cells (Rabbit Corneal Epithelial Cells); assay: Malondialdehyde assay (lipid peroxidation / free radical production) after radiation; format: cell-based; settings: 2 h preincubation
Source text: The malondialdehyde is a product of the lipid peroxidation which occurs following exposure to free radicals of polyinsaturated fat acids. The malondialdehyde production is then routinely interpreted as a production index of the radicals themselves by means of treatment with electromagnetic radiations or oxidant substances. The Q10, as antioxidant, decreases the malondialdehyde production by indicating an action thereof which inhibits the free radicals' formation. To perform the malondialdehyde assay, RCE cells (Rabbit Corneal Epithelial Cells which are rabbit corneal keratocytes immortalized with SV40) have been plated at the density of 5×10^5 cell/plate in 10 plates of Petri with 10-cm diameter and incubated overnight in 5% CO2 atmosphere, 37° C. Then, the plates have been preincubated for 2 hours with Q10 10 μM, Vit.E, Vit. […] At the moment of the test the cells have been detached with trypsin according to standard procedures and counted by means of cell-counting chamber. […]
At 300 μl of buffy coat of each sample, 300 μl of thiobarbituric acid (TBA) by 1% have been added. The mixtures have been incubated at 95° C. for 30 minutes, centrifugated for 20 minutes at 12,000 RPM and the optic absorption of the buffy coat resulting by spettrophotometric analysis at λ=532 nm has been assessed. […]

[5] = system: RCE cells; assay: ATP levels after excimer laser or 254 nm radiation (firefly luciferase kit); format: cell-based, rabbit; settings: Q10 10 μM in Lutrol F127; 2 h preincubation; 193 nm excimer laser (FIG. 2a) or 254 nm UV (FIG. 2b)
Protocol: In order to perform the ATP test, RCE cells have been placed at the density of 5×10^5 cells/plate in 10 plates of Petri with 10-cm diameter and incubated overnight in 5% CO2 atmosphere, 37° C. Subsequently the plates have been preincubated for 2 hours with Q10 at 10 μM dissolved in the Lutrol F127™ solution or with Lutrol F127™ only. The culture medium has been then replaced by 8 ml of sterile PBS, additioned with Ca^++ and Mg^++ to avoid the detach of the cells from the support and the plates have been submitted to treatment with excimer laser (λ=193 nm) as shown by FIG. 2a or with 254 nm ultraviolet laser, as shown in FIG. 2b. Subsequently the PBS has been replaced by fresh culture medium additioned with the above reagents and the plates have been incubated for further 2 hours. At the moment of the assay the cells have been detached with trypsin according to standard procedures and counted by means of cell-counting chamber. […] The ATP quantification in the extracts has been performed by the “ATP Determination Kit” (Molecular Probes, USA) kit, based upon the firefly lucipherase according to the supplier instructions. To detect fluorescence, an analyzer for liquid scintillation (Camberra Packard, USA) preset for the bioluminescence analysis has been utilized.

SMILES: COC1=C(OC)C(=O)C(C/C=C(\C)CC/C=C(\C)CC/C=C(\C)CC/C=C(\C)CC/C=C(\C)CC/C=C(\C)CC/C=C(\C)CC/C=C(\C)CC/C=C(\C)CCC=C(C)C)=C(C)C1=O [Q10, ubiquinone Q10]
- solubility in water [1]: non-hydrosoluble substance
- cumulative apoptotic deaths [2]: protective effect on cells treated with 193 nm excimer laser and 254 nm UV radiation
- vitality of cells (number of live cells, trypan blue) [3]: protective effect on the vitality of cells
- malondialdehyde levels following treatment with UV at 254 nm ([4]; Q10 10 μM in Lutrol F127, alone or in combination with Vit.E, Vit.C, 254 nm UV 15,000 μJ/cm^2, FIG. 1a): protective effect
- malondialdehyde production following treatment with 193 nm excimer laser ([4]; Q10 10 μM in Lutrol F127, various doses of 193 nm excimer laser, FIG. 1b): reductive effect against the malondialdehyde production
- ATP level following radiation [5]: protective effect opposing the decrease in the ATP level
